Measurements reported in publication PMC10541190 (The Journal of Clinical Investigation, 2023).
Several values for one entry are separate records, joined by “and”; a condition that tells them apart may be missing. Equal values may be shown once. Read-outs that look alike come from different tables or passages of the source. [ ]: non-standard residue; d: D form. Nle = CCCC[C@H](N)C(=O)O

Key:
[1] = system: SARS-CoV-2 (USA-WA1/2020); assay: microbe, parasite or virus in culture; assay type: cell-based
in vitro [2] = settings: African green monkey
in vitro [3] = settings: human, U-87 MG cell viability (%)
in vitro [4] = settings: human, Huh7 cell viability (%)

| Compound | SARS-CoV-2 infection (%) ([1]; 20 μM) | Cell viability (%) (Vero cells; 20 μM) | viability at 20 µM (in vitro [2]; Cell viability (%), 20 μM) [%] | viability at 3.33 µM (in vitro [3]) [%] | viability at 10 µM (in vitro [3]) [%] | SARS-CoV-2 infection (%) ([1]; 0.625 μM) | SARS-CoV-2 infection (%) ([1]; 1.25 μM) | SARS-CoV-2 infection (%) ([1]; 5 μM) | Cell viability (%) (Vero cells; 0.625 μM) | Cell viability (%) (Vero cells; 1.25 μM) | Cell viability (%) (Vero cells; 5 μM) | viability at 0.625 µM (in vitro [2]; Cell viability (%), 0.625 μM) [%] | viability at 1.25 µM (in vitro [2]; Cell viability (%), 1.25 μM) [%] | viability at 5 µM (in vitro [2]; Cell viability (%), 5 μM) [%] | viability at 0.37 µM (in vitro [3]) [%] | viability at […] (in vitro [3]) | other results |
| --- | --- | --- | --- | --- | --- | --- | --- | --- | --- | --- | --- | --- | --- | --- | --- | --- | --- |
| [N-]=[N+]=CC(=O)OC[C@H](N)C(=O)O [Aza-serine] | 0.00% | 91.48% and 89.75% | 87.1 | 94.5 | 84 | – | – | – | – | – | – | – | – | – | – | – | SARS-CoV-2 infection (%) ([1]; 0.2469 μM): 107.69% and 86.64%; SARS-CoV-2 infection (%) ([1]; 2.2222 μM): 7.01% and 8.09%; SARS-CoV-2 infection (%) ([1]; 6.6667 μM): 2.70% and 1.62%; Cell viability (%) (Vero cells; 0.2469 μM): 103.32%; Cell viability (%) (Vero cells; 2.2222 μM): 96.19% and 95.62%; Cell viability (%) (Vero cells; 6.6667 μM): 94.50% and 92.95%; viability at 0.2469 µM (in vitro [2]; Cell viability (%), 0.2469 μM): 87.9%; viability at 2.2222 µM (in vitro [2]; Cell viability (%), 2.2222 μM): 89.7%; viability at 6.6667 µM (in vitro [2]; Cell viability (%), 6.6667 μM): 92.2% |
| CNc1ccc2oc(C[C@H]3O[C@@]4(CC[C@H]3C)O[C@H]([C@H](C)C(=O)c3ccc[nH]3)[C@H](C)C[C@H]4C)nc2c1C(=O)O [Calci-mycin] | 0.00337% | 81.29% | 86.9 | 66.8 | 58.2 | 17.53% and 16.18% and 16.52% | 0.00337% | 0.00337% | 91.36% and 94.20% | 98.44% and 96.45% | 93.68% and 94.54% | 89.2 | 98.6 | 93.5 | 103 | 82.3% and 103% | – |
| O=C1NCN(c2ccccc2)C12CCN(CCCC(c1ccc(F)cc1)c1ccc(F)cc1)CC2 [Fluspiri-lene] | 3.37% and 2.70% and 4.04% | 83.60% and 85.38% | 85.1 | 102 | 93.8 | 121.35% and 117.98% and 101.12% | 111.24% and 114.61% and 104.49% | 114.61% and 94.38% and 111.24% | 103.85% and 102.73% | 105.07% and 105.49% | 94.12% and 91.52% | 105 | 108 | 94 | 97 | 97.8% and 97.9% | – |
| CO[C@@H]1[C@@H](O[C@@H]2O[C@H](C)[C@@H](O[C@H]3C[C@@](C)(O)[C@@H](OC(=O)CC(C)C)[C@H](C)O3)[C@H](N(C)C)[C@H]2O)[C@@H](CC=O)C[C@@H](C)[C@@H](O)/C=C/C=C/C[C@@H](C)OC(=O)C[C@H]1OC(C)=O [Josa-mycin] | 8.09% and 10.77% | – | – | 91.6 | 100 | – | – | – | – | – | – | – | – | – | 90.4 | 91.6% and 95.3% | SARS-CoV-2 infection (%) [1]: 107.69% and 101.94%; SARS-CoV-2 infection (%) ([1]; 2.22 μM): 48.50% and 53.93%; SARS-CoV-2 infection (%) ([1]; 6.67 μM): 16.19% and 21.54%; Cell viability (%) (Vero cells; 2.22 μM): 93.52% and 91.16%; Cell viability (%) (Vero cells; 6.67 μM): 93.20% and 88.03%; viability at 0.247 µM (in vitro [2]; Cell viability (%)): 102%; viability at 20 µM (in vitro [2]; Cell viability (%)): 89.7%; viability at 2.22 µM (in vitro [2]; Cell viability (%), 2.22 μM): 96.9%; viability at 6.67 µM (in vitro [2]; Cell viability (%), 6.67 μM): 93% |
| CO[C@@H]1[C@@H](O[C@@H]2O[C@H](C)[C@@H](O[C@H]3C[C@@](C)(O)[C@@H](OC(=O)CC(C)C)[C@H](C)O3)[C@H](N(C)C)[C@H]2O)[C@@H](CC=O)C[C@@H](C)[C@@H](O)/C=C/C=C/C[C@@H](C)OC(=O)C[C@H]1OC(C)=O [Josamycin] | – | – | – | – | – | – | – | – | – | – | – | – | – | – | – | – | EC50 ([1]; Severe acute respiratory syndrome coronavirus 2, Vero, 24 h, read-out: SARS-CoV-2 EC50): 2.4 µM; CC50 (in vitro [2]): > 20 µM; viability at 0.37 µM (in vitro [4]): 94.1%; viability at 3.33 µM (in vitro [4]): 97.2%; viability at 10 µM (in vitro [4]): 98.2%; viability at […] (in vitro [4]): 96.6% and 93.2% |
| CN(C)C(=O)C(CCN1CCC(O)(c2ccc(Cl)cc2)CC1)(c1ccccc1)c1ccccc1 [Lopera-mide] | – | – | – | 101 | 97.5 | – | – | – | – | – | – | – | – | – | 98.7 | 100% and 98.5% | Cell viability (%) (Vero cells; African green monkey, 20 µM): 99.64%; viability at 0.625 µM (in vitro [2]; Cell viability (%)): 115%; viability at 1.25 µM (in vitro [2]; Cell viability (%)): 121%; viability at 5 µM (in vitro [2]; Cell viability (%)): 105%; viability at 20 µM (in vitro [2]; Cell viability (%)): 98.5% |
| CN(C)C(=O)C(CCN1CCC(O)(c2ccc(Cl)cc2)CC1)(c1ccccc1)c1ccccc1 [Loperamide] | – | – | – | – | – | – | – | – | – | – | – | – | – | – | – | – | CC50 (in vitro [2]): > 20 µM; viability at 0.123 µM (in vitro [4]): 92.4%; viability at 0.37 µM (in vitro [4]): 91.8%; viability at 3.333 µM (in vitro [4]): 88.9%; viability at 10 µM (in vitro [4]): 68.3% |
| O[C@H]1[C@H]2c3cc4c(cc3CN3CCC(=C[C@@H]1O)[C@H]23)OCO4 [Lyco-rine] | 0.00337% | 88.99% and 91.05% | 83 | – | – | 7.08% and 5.06% and 8.76% | 0.34% and 0.40% and 0.24% | 0.00337% | 98.69% | 103.60% and 104.02% | 84.99% and 87.96% | 93.8 | 97.9 | 83 | – | – | – |
| CC[C@@]1([C@@H]2O[C@@H]([C@H]3O[C@@](O)(CO)[C@H](C)C[C@@H]3C)C[C@@H]2C)CC[C@H]([C@]2(C)CC[C@]3(C[C@H](O)[C@@H](C)[C@@H]([C@@H](C)[C@@H](OC)[C@H](C)C(=O)O)O3)O2)O1 [Monen-sin] | 0.0337% | 97.54% and 96.71% | 98.8 | 78.7 | 79.7 | 74.16% and 84.27% and 91.01% | 33.71% and 60.67% and 53.93% | 0.0742% and 0.09% and 0.07% | 106.13% and 103.45% | 110.73% and 112.93% | 95.75% and 98.96% | 103 | 113 | 100 | 82 | 79.2% and 83.3% | – |
| CC(C)(C)NCC(O)c1ccc(O)c(CO)c1 (stereo not shown) [Salbuta-mol] | 105.49% and 89.01% | – | – | – | – | 85.71% and 108.79% and 115.38% | 128.57% and 98.90% | 92.31% and 118.68% and 115.38% | – | – | – | – | – | – | – | – | – |
| O=C(CCCN1CCC2(CC1)C(=O)NCN2c1ccccc1)c1ccc(F)cc1 [Spiperone] | – | – | – | – | – | – | – | – | – | – | – | – | – | – | – | – | CC50 (in vitro [2]): > 20 µM; viability at 0.37 µM (in vitro [4]): 99.5%; viability at 3.33 µM (in vitro [4]): 79.2%; viability at 10 µM (in vitro [4]): 75.7%; viability at […] (in vitro [4]): 97% and 99.9% |
| CC(C)(C)c1cc(C=C(C#N)C#N)cc(C(C)(C)C)c1O [Tyrphos-tin A9] | 9.10% and 6.07% and 8.43% | 97.68% and 97.70% | 91.5 | – | – | 101.12% and 121.35% and 124.72% | 131.46% and 128.09% and 114.61% | 107.87% and 117.98% and 101.12% | 112.22% and 113.82% | 118.35% and 120.78% | 96.34% | 107 | 111 | 96.3 | – | – | – |
| Ac-Leu-Leu-[Nle]-aldehyde | 2.73% and 1.37% and 0.00% | – | – | – | – | – | – | – | – | – | – | – | – | – | – | – | CC50 (Vero cells): > 20 µM; Cell viability (%) (Vero cells; 0.25 μM): 91.85%; Cell viability (%) (Vero cells; 0.74 μM): 90.53%; Cell viability (%) (Vero cells; 6.67 μM): 98.46% |
| Aurothioglucose | – | – | – | – | – | – | – | – | – | – | – | – | – | – | – | – | CC50 (Vero cells): > 20 µM |
| Penitrem A | 6.40% and 7.08% and 9.44% | – | – | – | – | 91.01% and 104.49% and 97.75% | 111.24% and 101.12% and 94.38% | 117.98% and 128.09% and 111.24% | – | – | – | – | – | – | – | – | – |
